Assay results from patent US20200247800A1, “SUBSTITUTED BICYCLIC HETEROCYCLIC COMPOUNDS AS NADPH OXIDASE INHIBITORS” (Glenmark Pharmaceuticals S.A., priority 2017, published 2020).
Where a name gives a salt, the structure may show the parent alone.

Biological target: T1, human NOX4 (Homo sapiens, UniProt Q9NPH5)
T1 construct: expressed in transfected cells; membrane fraction used
T1 sequence (Q9NPH5 1-578): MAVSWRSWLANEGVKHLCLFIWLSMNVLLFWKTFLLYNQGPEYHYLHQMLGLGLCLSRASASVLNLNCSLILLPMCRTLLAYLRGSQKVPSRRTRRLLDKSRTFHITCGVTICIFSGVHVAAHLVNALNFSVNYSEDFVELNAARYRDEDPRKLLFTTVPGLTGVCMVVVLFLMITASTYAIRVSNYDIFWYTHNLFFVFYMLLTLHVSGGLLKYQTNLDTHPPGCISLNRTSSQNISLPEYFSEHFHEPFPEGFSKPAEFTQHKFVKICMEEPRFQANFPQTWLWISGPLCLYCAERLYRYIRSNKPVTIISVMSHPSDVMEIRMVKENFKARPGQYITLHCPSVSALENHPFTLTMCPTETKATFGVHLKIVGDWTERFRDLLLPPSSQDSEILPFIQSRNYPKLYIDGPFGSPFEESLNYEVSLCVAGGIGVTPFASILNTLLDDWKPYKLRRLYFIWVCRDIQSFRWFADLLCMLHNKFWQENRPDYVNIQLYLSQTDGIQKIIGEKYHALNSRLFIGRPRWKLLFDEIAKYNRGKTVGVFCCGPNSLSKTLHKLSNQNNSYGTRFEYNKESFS
T1 sequence (P13498 1-195 partner): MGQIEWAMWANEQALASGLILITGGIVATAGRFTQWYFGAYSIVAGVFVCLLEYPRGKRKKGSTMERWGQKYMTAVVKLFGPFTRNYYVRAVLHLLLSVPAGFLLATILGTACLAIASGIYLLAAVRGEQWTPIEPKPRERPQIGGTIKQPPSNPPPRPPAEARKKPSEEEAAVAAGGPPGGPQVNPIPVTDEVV
Assay: Cell free membrane based in vitro NOX4 assay: H2O2 production by membranes expressing human NOX4, measured with Amplex Red
Assay type: biochemical
Details: for inhibition at 1 µM / Percentage inhibition at 1.0 μM: 1.0 μM compound; for inhibition at 1 µM: read-out: Percentage inhibition at 1.0 μM; for inhibition at 10 µM / Percentage inhibition at 10.0 μM: 10.0 μM compound; for inhibition at 10 µM: read-out: Percentage inhibition at 10.0 μM; for IC50: class symbols
Outline: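 IC50 came from concentration-response curves fitted as % of the inhibitor-free maximum. H2O2 formation was monitored for 10 min via Amplex Red/HRP fluorescence (544/590 nm) after NADPH start. Membranes from a stable hNOX4/HEK line had 20 min exposure to inhibitor beforehand at pH 7.4.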

Compound	inhibition at 1 µM	inhibition at 10 µM	IC50	further results
Cc1nn(CCCO)c2[nH]c(-c3c(F)cccc3F)c(O)c(=O)c12 [Example 232, 6-(2,6-Difluorophenyl)-5-hydroxy-1-(3-hydroxypropyl)-3-methyl-1H-pyrazolo[3,4-b]pyridin-4(7H)-one]	85.1%	84.8%	50 to 100 nM	
COc1c(-c2ccccc2Cl)[nH]c2c(c(C)nn2C)c1=O [Example 233, 6-(2-chlorophenyl)-5-methoxy-1,3-dimethyl-1H-pyrazolo[3,4-b]pyridin-4(7H)-one]	32.8%	69.7%		
CCn1nc(C)c2c(=O)c(OC)c(-c3c(F)cccc3F)[nH]c21 [Example 234]	25.8%	70.2%		
CCn1nc(C)c2c(=O)c(O)c(-c3ccc(NS(C)(=O)=O)cc3F)[nH]c21 [Example 235, N-[4-(1-ethyl-5-hydroxy-3-methyl-4-oxo-4,7-dihydro-1H-pyrazolo[3,4-b]pyridin-6-yl)-3-fluorophenyl]methanesulfonamide]	72.9%		> 150 nM	
CCn1nc(C)c2c(=O)c(O)c(-c3c(F)cc(NS(C)(=O)=O)cc3F)[nH]c21 [Example 236, N-[4-(1-Ethyl-5-hydroxy-3-methyl-4-oxo-4,7-dihydro-1H-pyrazolo[3,4-b]pyridin-6-yl)-3,5-difluorophenyl]methanesulfonamide]	84.8%	87.7%	50 to 100 nM	
Cn1nc(C(F)(F)F)c2c(=O)c(O)c(-c3ccc(NS(C)(=O)=O)cc3F)[nH]c21 [Example 237, N-{3-Fluoro-4-[5-hydroxy-1-methyl-4-oxo-3-(trifluoromethyl)-4,7-dihydro-1H-pyrazolo[3,4-b]pyridin-6-yl]phenyl}methanesulfonamide]	60.9%	74.3%	> 150 nM	
CCc1nn(CCN2CCOCC2)c2[nH]c(-c3ccccc3Cl)c(O)c(=O)c12 [Example 238, 6-(2-Chlorophenyl)-3-ethyl-5-hydroxy-1-(2-morpholinoethyl)-1H-pyrazolo[3,4-b]pyridin-4(7H)-one hydrochloride]			> 150 nM	Percentage inhibition at 1.0 μM (hydrochloride): 80.17%; Percentage inhibition at 10.0 μM (hydrochloride): 71.20%
Cc1nn(CCN2CCOCC2)c2[nH]c(-c3cccc(C(F)(F)F)c3F)c(O)c(=O)c12 [Example 239, 6-(2-Fluoro-3-(trifluoromethyl)phenyl)-5-hydroxy-3-methyl-1-(2-morpholinoethyl)-1H-pyrazolo[3,4-b]pyridin-4(7H)-one dihydrochloride]				Percentage inhibition at 1.0 μM (dihydrochloride): 84.59%; Percentage inhibition at 10.0 μM (dihydrochloride): 77.77%
Cc1nn(CCN2CCN(C)CC2)c2[nH]c(-c3ccccc3Cl)c(O)c(=O)c12 [Example 243, 6-(2-Chlorophenyl)-5-hydroxy-3-methyl-1-(2-(4-methylpiperazin-1-yl)ethyl)-1H-pyrazolo[3,4-b]pyridin-4(7H)-one fumarate]			> 150 nM	
